We go through 15 molecules from US5028604A, “Condensed benzene derivative” (Zeria Pharmaceutical Co., Ltd., priority 1988, dated 1991).

For one assay, the system named is ICR male mice. Nature of the assay: Anti-Hypoxic Activity (survival time in 4% O2 + 96% N2). The format is in vivo. The note with it: Mus musculus, ip. On the procedure:
Groups of ICR male mice (Charles River Co.), age 4 to 5 weeks, each group consisting of 10 mice and each mouse having been fasted for 24 hours, were used for the test. Mice were placed in a transparent desiccator (diameter: 19 cm, height: 30 cm) made of synthetic resin and having 2 valves, one at the upper portion and the other at the lower portion, for replacing the gas therein. A mixed gas (4% O2 +96% N2) was fed from the upper valve at a rate of 10 l/min to measure the period of time until respiratory arrest took place for each mouse. The time measured was taken as the survival time.
Each tested compound suspended in an solvent was intraperitoneally administered 30 minutes before the start of the mixed gas feeding. A group of mice to which only the solvent was intraperitoneally administered was used as a control.
The anti-hypoxic activity was determined according to the following formula, [formula]

Assay [1] has as its target T1, prolyl endopeptidase from canine brain (Canis lupus familiaris, UniProt A0A8I3N6C8).
T1 construct: A prolyl endopeptidase was prepared from canine brains; from tissue; host or cells: canine brain
Nature of the assay: Inhibitory Activity Against Prolyl Endopeptidase From Brain. Type of assay: biochemical. The note with it: 37° C., pH 7.0, substrate benzyloxycarbonylglycylprolylparanitroanilide; read-out: Inhibition Potency, IC50. The method, then: Following buffer solutions were used for the measurement.
Buffer A: 20 mM Tris-HCl buffer (pH 7.0)
Buffer B: Buffer A containing 0.1% gelatin, 1 mM EDTA, and 1 mM 2-mercaptoethanol
This solution (50 μl) was added to 940 μl of the Buffer A, and the solution thus obtained was left at 37° C. for 10 minutes (This solution is herein referred to as "Enzyme solution"). A mixed solution of 50 μl of the Buffer B and 940 μl of Buffer A was used as a "Correction solution".
A test compound was dissolved in dimethylsulfoxide, and 10 μl of the solution was added to the Enzyme solution. The mixture was stirred and allowed to stand at 37° C. for 10 minutes. Separately, 10 μl of dimethylsulfoxide was added to the Enzyme solution and was processed in the same manner. The solution thus obtained was served as a "Control solution". The same procedure was carried out on the Correction solution.
One hundred (100) μl of 2.5 mM benzyloxycarbonylglycylprolylparanitroanilide, which was dissolved with 40% dioxane, was added to each of the above 3 solutions, i.e., the Enzyme solution with the test compound, Control solution, and Correction solution, and the reaction was carried out at 37° C. for 10 minutes.
Enzyme activities were determined by subtracting the blank value, i.e., the absorbance measured on the Correction solution, from the absorbance of each of the sample solutions and of the Control solution.

The test system of the next assay is CD female rats. Nature of the assay: Anti-Amnesic Activity (passive avoidance, electric convulsive shock). The format is in vivo. The note with it: 30 mg/kg P.O., one hour before acquisition trial; ECS; retention trial at 24 hours; solvent + sham 133.0, solvent + ECS 0.8. On the procedure: Compounds of this invention were checked with respect to their abilities to prevent the inhibition of long-term memory fixation by electric convulsive shock (ECS). CD female rats (Charles River), weighed 160-180 g were used for the test. One hour after the administration of a compound of this invention, the acquisition trial according to the passive avoidance training was performed on the rats. A foot shock was given to the rats when they entered into a dark room. Immediately after that an amnesic treatment by ECS or a sham amnesic treatment was performed. Twenty four (24) hours after the acquisition trial the retention trial was performed. Latency of the […] entering into a dark room was measured.

Setting [2] is: 100 mg/kg i.p., 30 minutes before mixed gas, control = 100, read-out: Anti-hypoxic Activity.
Where [3] appears, read: read-out: Anti-hypoxic Activity.

Like-named read-outs stand apart in the source and are kept apart here. Bounds are passed on as bounds.

T1 sequence (A0A8I3N6C8 1-710): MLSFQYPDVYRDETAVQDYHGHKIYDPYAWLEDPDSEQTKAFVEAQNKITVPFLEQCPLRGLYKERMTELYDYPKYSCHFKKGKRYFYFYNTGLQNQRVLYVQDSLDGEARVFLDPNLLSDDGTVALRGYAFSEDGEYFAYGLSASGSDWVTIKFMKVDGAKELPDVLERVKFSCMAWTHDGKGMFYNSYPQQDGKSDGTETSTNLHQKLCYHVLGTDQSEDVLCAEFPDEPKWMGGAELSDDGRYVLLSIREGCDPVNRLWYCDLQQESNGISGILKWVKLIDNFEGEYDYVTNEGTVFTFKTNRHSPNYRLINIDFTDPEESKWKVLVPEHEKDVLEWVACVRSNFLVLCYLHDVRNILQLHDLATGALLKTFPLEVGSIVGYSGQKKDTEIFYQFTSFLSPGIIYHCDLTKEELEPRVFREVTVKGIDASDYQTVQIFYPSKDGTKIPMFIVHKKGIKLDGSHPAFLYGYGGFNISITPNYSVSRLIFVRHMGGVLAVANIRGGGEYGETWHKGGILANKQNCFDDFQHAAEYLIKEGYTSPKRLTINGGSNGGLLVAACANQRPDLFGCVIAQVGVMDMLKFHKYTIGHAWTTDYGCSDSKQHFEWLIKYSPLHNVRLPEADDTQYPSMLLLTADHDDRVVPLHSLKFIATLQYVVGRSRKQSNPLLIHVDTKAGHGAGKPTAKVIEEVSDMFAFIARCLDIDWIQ

`O=C[C@@H]1CCCN1C(=O)[C@@H]1CCCN1C(=O)CC1=Cc2ccccc2C1` [Example 42, 1-[1-(2-indenylacetyl)-L-prolyl]-L-prolinal]: the response vs control in vivo at 100 mg/kg in the assay on ICR male mice (setting [2]) amounted to 168%. Moreover, in assay [1], the 50% inhibitory concentration (IC50) (commonly the concentration that gives 50% inhibition) turned out to be 0.0013 µM.
`O=C([C@@H]1CCCN1C(=O)CC1=Cc2ccccc2C1)N1CCSC1` [Example 18, 3-[1-(2-indenylacetyl)-L-prolyl]thiazolidine]: the concentration for half-maximal inhibition (IC50) in assay [1] was found to be 0.043 µM.
Regarding `O=C([C@@H]1CCCN1C(=O)CC1=Cc2ccccc2C1)N1CCCC1` [Example 19, 1-[1-(2-indenyl-acetyl)-L-prolyl]pyrrolidine], the response vs control in vivo at 100 mg/kg in the assay on ICR male mice (setting [2]) is 155%.
As for `CC(C)(CO)[C@@H](O)C(=O)NCCCC(=O)O` [Calcium hopantenate, reference compound], in the assay with ICR male mice (250 mg/kg i.p., 30 minutes before mixed gas, control = 100), the response vs control in vivo at 250 mg/kg is 135%.
With `O=C([C@@H]1CCCCN1C(=O)CC1Cc2ccccc2C1)N1CCCC1` [Example 10, 1-[1-(2-indanylacetyl)-L-piperidine-2ylcarbonyl]pyrrolidine], the half-maximal inhibitory concentration (IC50) in assay [1] is 0.049 µM.
`O=C([C@@H]1CCCN1C(=O)CC1CCc2ccccc2C1)N1CCCC1` (stereo partly drawn) [Example 24, 1-[1-(1,2,3,4-tetrahydronaphthalen-2-ylacetyl)-L-prolyl]pyrrolidine]: in the assay on ICR male mice (setting [2]), the response vs control in vivo at 100 mg/kg turned out to be 235%.
Consider `COC1=C(OC)C(=O)C(CCCCCCCCCCO)=C(C)C1=O` [Idebenone, reference compound], for which the response vs control in vivo at 100 mg/kg in the assay on ICR male mice (setting [2]) stood at 140%.
In the case of `COc1ccc(C(=O)N2CCCC2=O)cc1` [Aniracetam, reference compound], in the assay on ICR male mice (setting [3]), the response vs control in vivo at 100 mg/kg turned out to be 115% and the response vs control in vivo at 300 mg/kg was found to be 159%. The IC50 in assay [1] is more than 1000 µM.
For the molecule `O=C([C@@H]1CSCN1C(=O)CCCC1Cc2ccccc2C1)N1CCCC1` [Example 26, 1-{3-[4-(indan-2-yl)butanoyl]-L-thioprolyl}pyrrolidine], the response vs control in vivo at 100 mg/kg in the assay on ICR male mice (setting [2]) is 291%.
On the same count and under the same terms, as for `O=C([C@@H]1CCCN1C(=O)CC1Cc2ccccc2C1)N1CCCC1` [Example 4, 1-[1-(2-indanylacetyl)-L-prolyl]pyrrolidine], the figure is 141%; as for `O=C([C@@H]1CSCN1C(=O)CC1Cc2ccccc2C1)N1CCCC1` [Example 2, 1-[3-(2-indanylacetyl)-L-thioprolyl]pyrrolidine], 127%.
In the case of `O=C([C@@H]1CSCN1C(=O)CC1Cc2ccccc2C1)N1CCSC1` [Example 1, 3-[3-(2-indanylacetyl)-L-thioprolyl]thiazolidine], in the assay on ICR male mice (setting [2]), the response vs control in vivo at 100 mg/kg was found to be 131%. Moreover, the “Latency to entering into a dark room” value in the assay with CD female rats is 77.0 s.
As for `O=C([C@H]1CCCCN1C(=O)CC1Cc2ccccc2C1)N1CCCC1` [Example 11, 1-[1-(2-indanylacetyl)-D-piperidine-2-ylcarbonyl]pyrrolidine], the response vs control in vivo at 50 mg/kg in the assay with ICR male mice (50 mg/kg i.p., 30 minutes before mixed gas, control = 100) stood at 141%.
Regarding `O=C(C1CSCCN1C(=O)CC1Cc2ccccc2C1)N1CCSC1` (racemic) [Example 5, 3-[4-(2-indanylacetyl)-DL-1,4-thiazan-3-ylcarbonyl]thiazolidine], in assay [1], the IC50 worked out at 0.022 µM.
As for `O=C(O)[C@@H]1CCCN1C(=O)[C@@H]1CCCN1C(=O)CC1Cc2ccccc2C1` [Example 17, 1-[1-(2-indanylacetyl)-L-prolyl]-L-proline], the response vs control in vivo at 100 mg/kg in the assay with ICR male mice (setting [2]) was found to be 137%.
